Test results as given in US5387671A, “Hexa- and heptapeptide anaphylatoxin-receptor ligands” (Abbott Laboratories, priority 1990, dated 1995).
Numbered stars: 1 amine (or outer) side, 2 acyl side, 3 side chain; on linkers, the order of the positions; unused ones are H or OH. Square brackets hold non-standard residues; d marks the D form. Peptide text beside a SMILES is read from it. * marks the point of attachment. X1 = N=C(N)NCCC[C@@H](NC[C@H](Cc1ccccc1)N*)C(=O)O; X4 = NCCCC[C@@H](CN1CCC[C@H]1C(=O)[*:2])N[*:1]; X2 = CN(CCCCC(Cc1ccccc1)C(=O)[*:2])[*:1]; X3 = CN(C(CCCc1ccccc1)C(=O)[*:2])[*:1]; d(β3hF) = N[C@@H](CC(=O)O)Cc1ccccc1; NMeCha = CN[C@@H](CC1CCCCC1)C(=O)O; NMeF = CN[C@@H](Cc1ccccc1)C(=O)O; NMeGABA = CN(CCCC(=O)[*:2])[*:1]; Cha = N[C@@H](CC1CCCCC1)C(=O)O; dCha = N[C@H](CC1CCCCC1)C(=O)O; NMeA = CN[C@@H](C)C(=O)O; Nle = CCCC[C@H](N)C(=O)O; Aze = O=C(O)[C@@H]1CCN1; Ahx = NCCCCCC(=O)O; βAla = NCCC(=O)O; Sar = CNCC(=O)O

Molecular target: T1, C5a Receptor (Homo sapiens, UniProt P21730)
T1 construct: 2.5-25 ug/mL of purified PMNL membrane fragments; endogenous in cells; host or cells: PMNL (polymorphonuclear leukocytes), purified membrane fragments
T1 sequence (P21730 1-350): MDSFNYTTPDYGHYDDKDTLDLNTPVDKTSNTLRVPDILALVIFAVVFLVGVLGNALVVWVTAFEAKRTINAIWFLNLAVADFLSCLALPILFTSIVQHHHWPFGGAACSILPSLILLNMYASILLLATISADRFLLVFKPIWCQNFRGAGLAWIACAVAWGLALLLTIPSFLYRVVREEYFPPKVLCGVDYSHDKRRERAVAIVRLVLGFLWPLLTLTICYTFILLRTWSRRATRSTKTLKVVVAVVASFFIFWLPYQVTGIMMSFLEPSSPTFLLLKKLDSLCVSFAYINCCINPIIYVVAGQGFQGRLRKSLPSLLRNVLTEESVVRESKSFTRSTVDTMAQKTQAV
Assay: Anaphylatoxin Receptor Binding Ki Determination (inhibition of 125I-C5a binding to PMNL membrane fragments)
Settings: 0.03-1 nM 125I-C5a; 2.5-25 ug/mL purified PMNL membrane fragments; filtration; read-out: In vitro C5a Receptor Binding Potency Ki
From the text: Free and membrane-bound ligand were separated by filtration.

Row | Structure (SMILES) | Ki [nM]
1 | CN[C@@H](Cc1ccccc1)C(=O)N[C@@H](CCCCN)C(=O)N1CCC[C@H]1C(=O)N[C@H](CC1CCCCC1)C(=O)N[C@@H](Cc1ccccc1)C(C)N[C@@H](CCCNC(=N)N)C(=O)O (mixture of isomers) [Example 143, (N-Methyl)Phenylalanyl-Lysyl-Prolyl-{(2R)-2-Amino-3-cyclohexylpropanoyl}-Phenylalanyl-.PSI.{(R/S)CH(CH3)NH}-Arginyl-OH] | 4200
2 | CN[C@@H](Cc1ccccc1)C(=O)N[C@@H](CCCCN)C(=O)N1CCC[C@H]1C(=O)N[C@H](CC1CCCCC1)C(=O)N[C@H](CN[C@H](CCCNC(=N)N)C(=O)O)Cc1ccccc1 [Example 2, (N-Methyl)Phenylalanyl-Lysyl-Prolyl-{(2R)-2-Amino-3-cyclohexylpropanoyl}-Phenylalanyl-.PSI.(CH2 NH)-DArginyl-OH] (H-[NMeF]KP[dCha]-X1) | 1000
3 | CC(C)C[C@H](NC(=O)[C@H](CCC(N)=O)NC(=O)CCCCCNC(=O)[C@@H](N)Cc1c[nH]cn1)C(=O)NCC(=O)N[C@@H](CCCNC(=N)N)C(=O)O [Example 4, H-Histidyl-{6-Aminohexanoyl}-Glutaminyl-Leucyl-Glycyl-Arginyl-OH] (H-H[Ahx]QLGR-OH) | 180000
4 | CC(C)C[C@H](NC(=O)[C@H](CC1CCCCC1)NC(=O)CCNC(=O)[C@H](CCCCN)NC(=O)[C@@H](N)Cc1ccccc1)C(=O)N[C@H](C)C(=O)N[C@@H](CCCNC(=N)N)C(=O)O [Example 7, H-Phenylalanyl-Lysyl-{3-Aminopropanoyl}-{(2S)-2-Amino-3-cyclohexylpropanoyl}-Leucyl-DAlanyl-Arginyl-OH] (H-FK[βAla][Cha]L[dA]R-OH) | 2200
5 | C[C@H](NC(=O)[C@H](CCCCN)NC(=O)[C@@H](N)Cc1ccccc1)C(=O)N[C@@H](CC1CCCCC1)C(=O)NCCCCCC(=O)N[C@@H](CCCNC(=N)N)C(=O)O [Example 10, H-Phenylalanyl-Lysyl-Alanyl-{(2S)-2-Amino-3-cyclohexylpropanoyl}-{6-Aminohexanoyl}-Arginyl-OH] (H-FKA[Cha][Ahx]R-OH) | 85000
6 | CC(C)C[C@H](NC(=O)[C@H](CC1CCCCC1)NC(=O)[C@H](C)N(C)C(=O)[C@H](CCCCN)NC(=O)[C@@H](N)Cc1ccccc1)C(=O)N[C@H](C)C(=O)N[C@@H](CCCNC(=N)N)C(=O)O [Example 17, H-Phenylalanyl-Lysyl-(N-Methyl)Alanyl-{(2S)-2-Amino-3-cyclohexylpropanoyl}-Leucyl-DAlanyl-Arginyl-OH] (H-FK[NMeA][Cha]L[dA]R-OH) | 2500
7 | C[C@H](NC(=O)[C@H](CCCCN)NC(=O)[C@@H](N)Cc1ccccc1)C(=O)N[C@@H](CC1CCCCC1)C(=O)NCCC(=O)N[C@H](CCCNC(=N)N)C(=O)O [Example 19, H-Phenylalanyl-Lysyl-Alanyl-{(2S)-2-Amino-3-cyclohexylpropanoyl}-{3-Aminopropanoyl}-DArginyl-OH] (H-FKA[Cha][βAla][dR]-OH) | 130000
8 | CN[C@@H](Cc1ccccc1)C(=O)N[C@@H](CCCCN)C(=O)N(C)[C@@H](C)C(=O)N[C@H](CC1CCCCC1)C(=O)N[C@@H](CC1CCCCC1)C(=O)N[C@H](CCCNC(=N)N)C(=O)O [Example 34, (N-Methyl)Phenylalanyl-Lysyl-(N-Methyl)Alanyl-{(2R)-2-Amino-3-cyclohexylpropanoyl}-{(2S)-2-Amino-3-cyclohexylpropanoyl}-DArginyl-OH] (H-[NMeF]K[NMeA][dCha][Cha][dR]-OH) | 34
9 | C[C@H](NC(=O)[C@H](CCCCN)NC(=O)[C@@H](N)Cc1ccccc1)C(=O)N[C@H](CC1CCCCC1)C(=O)N(C)[C@@H](CC1CCCCC1)C(=O)N[C@H](CCCNC(=N)N)C(=O)O [Example 40, H-Phenylalanyl-Lysyl-Alanyl-{(2R)-2-Amino-3-cyclohexylpropanoyl}-{(N-Methyl)(2S)-2-Amino-3cyclohexylpropanoyl}-DArginyl-OH] (H-FKA[dCha][NMeCha][dR]-OH) | 590
10 | N=C(N)NCCC[C@@H](NC(=O)[C@H](CC1CCCCC1)NC(=O)[C@@H](CC1CCCCC1)NC(=O)[C@@H]1CCN1C(=O)[C@H](CCCCN)NC(=O)[C@@H](N)Cc1ccccc1)C(=O)O [Example 43, H-Phenylalanyl-Lysyl-{(2S)-Azetidine-2-carbonyl}-{(2R)-2-Amino-3-cyclohexylpropanoyl}-{(2S)-2-Amino-3-cyclohexylpropanoyl}-DArginyl-OH] (H-FK[Aze][dCha][Cha][dR]-OH) | 23
11 | CN(CC(=O)N[C@H](CC1CCCCC1)C(=O)N[C@@H](CC1CCCCC1)C(=O)N[C@H](CCCNC(=N)N)C(=O)O)C(=O)[C@H](CCCCN)NC(=O)[C@@H](N)Cc1ccccc1 [Example 56, H-Phenylalanyl-Lysyl-Sarcosyl-{(2R)-2-Amino-3-cyclohexylpropanoyl}-{(2S)-2-Amino-3-cyclohexylpropanoyl}-DArginyl-OH] (H-FK[Sar][dCha][Cha][dR]-OH) | 14
12 | CN[C@@H](Cc1ccccc1)C(=O)N[C@@H](CCCCN)C(=O)N(C)[C@@H](Cc1ccccc1)C(=O)N[C@H](CC1CCCCC1)C(=O)N[C@@H](CC1CCCCC1)C(=O)N[C@H](CCCNC(=N)N)C(=O)O [Example 61, (N-Methyl)Phenylalanyl-Lysyl-(N-Methyl)Phenylalanyl-{(2R)-2-Amino-3-cyclohexylpropanoyl}-{(2S)-2-Amino-3-cyclohexylpropanoyl}-DArginyl-OH] (H-[NMeF]K[NMeF][dCha][Cha][dR]-OH) | 220
13 | CCCC[C@H](NC(=O)[C@H](Cc1ccccc1)NC)C(=O)N(C)[C@@H](C)C(=O)N[C@H](CC1CCCCC1)C(=O)N[C@@H](CC1CCCCC1)C(=O)N[C@H](CCCNC(=N)N)C(=O)O [Example 62, (N-Methyl)Phenylalanyl-Norleucyl-(N-Methyl)Alanyl-{(2R)-2-Amino-3-cyclohexylpropanoyl}-{(2S)-2-Amino-3-cyclohexylpropanoyl}-DArginyl-OH] (H-[NMeF][Nle][NMeA][dCha][Cha][dR]-OH) | 260
14 | CN[C@@H](Cc1ccccc1)C(=O)N[C@@H](CCCCN)CN1CCC[C@H]1C(=O)N[C@H](CC1CCCCC1)C(=O)N[C@@H](CC1CCCCC1)C(=O)N[C@H](CCCNC(=N)N)C(=O)O [Example 79, (N-Methyl)Phenylalanyl-Lysyl-.PSI.{CH2 NH}-Prolyl-{(2R)-2-Amino-3-cyclohexylpropanoyl}-{(2S)-2-Amino-3-cyclohexylpropanoyl}-DArginyl-OH] (H-[NMeF][X4][dCha][Cha][dR]-OH) | 14500
15 | CN[C@@H](Cc1ccccc1)C(=O)N[C@@H](CCCCN)C(=O)N1CCC[C@H]1CN[C@H](CC1CCCCC1)C(=O)N[C@@H](Cc1ccccc1)C(=O)N[C@H](CCCNC(=N)N)C(=O)O [Example 103] | 360
16 | CN[C@@H](Cc1ccccc1)C(=O)N[C@@H](CCCCN)C(=O)N(C)CCCC(=O)N[C@@H](Cc1ccccc1)C(=O)N[C@H](CCCNC(=N)N)C(=O)O [Example 121, (N-Methyl)Phenylalanyl-Lysyl-{4-(Methylamino)butanoyl}-Phenylalanyl-DArginyl-OH] (H-[NMeF]K[NMeGABA]F[dR]-OH) | 21000
17 | CN[C@@H](Cc1ccccc1)C(=O)N[C@@H](CCCCN)C(=O)N(C)CCCCC(Cc1ccccc1)C(=O)N[C@@H](Cc1ccccc1)C(=O)N[C@H](CCCNC(=N)N)C(=O)O (stereo partly shown) [Example 134] (H-[NMeF]K[X2]F[dR]-OH) | 6800
18 | CN[C@@H](Cc1ccccc1)C(=O)N[C@@H](CCCCN)C(=O)N(C)C(CCCc1ccccc1)C(=O)N[C@H](CC1CCCCC1)C(=O)N[C@@H](Cc1ccccc1)C(=O)N[C@H](CCCNC(=N)N)C(=O)O (stereo partly drawn) [Example 156, (N-Methyl)Phenylalanyl-Lysyl-{(2R/S)-2-Methylamino-5-phenylpentanoyl}-{(2R)-2-Amino-3-cyclohexylpropanoyl}-Phenylalanyl-DArginyl-OH] (H-[NMeF]K[X3][dCha]F[dR]-OH) | 660
19 | CN[C@@H](Cc1ccccc1)C(=O)N[C@@H](CCCCN)C(=O)N1CCC[C@H]1C(=O)N[C@H](CC1CCCCC1)C(=O)N[C@@H](Cc1ccccc1)C(=O)N[C@@H](CC(=O)O)Cc1ccccc1 [Example 170, (N-Methyl)Phenylalanyl-Lysyl-Prolyl-{(2R)-2-Amino-3-cyclohexylpropanoyl}-Phenylalanyl-{(3R)-Amino-4-phenylbutanoic acid}] (H-[NMeF]KP[dCha]F[d(β3hF)]-OH) | 2600
